{"source": "patent US11260066B2", "about": "“Inhibiting reduction of lean body mass and inhibiting accumulation of liver fat by administering allulose” (SAMYANG CORPORATION, priority 2017, dated 2022)", "key": {"[1]": {"experiment": "Liver CT: degree of fat deposition in the liver (HU of liver and spleen), human application test", "format": "in vivo", "settings": "for Liver HU Mean, 12 W, Mean / Liver - Spleen HU (Liver minus Spleen), 12 W, Mean / Spleen HU Mean, 12 W, Mean: 12 weeks; for Liver HU Mean, 12 W, Mean / Liver HU Mean, Difference (12 W vs base line): ITT 33", "text": "After conducting a screening test for those who heard the detailed description of the purpose and research method of the present example and agreed in writing as subjects, those who met the selection/exclusion criteria were selected. The specific selection criteria are as follows, and the final selected subjects are 99 men and women who are overweight or obese, and the demographic information of the selected subjects is shown in the following Table 1. Ninety nine (99) subjects were randomly assigned to the high-dose group, low-dose group or control group, with including 33 subjects in each test group. In three test groups, the products were mixed in 100 ml of water and were administered orally twice a day. As the daily dose for one test subject, 12 g allulose in the high-dose group, 6 g allulose and 6 g anhydrous glucose in the low-dose group, and 12 g anhydrous glucose in the control group were divided and provided twice a day. It was administered from the day after the random assignment day (0 day), and was taken with drinking water twice at morning and evening with meals for 12 weeks. In order to evaluate the degree of fat deposition in the liver at the time of hospital visit 2 and visit 5, the HU of liver, HU of spleen, HU difference of liver and spleen (Liver minus Spleen), and HU ratio of liver and spleen (Ratio Between Liver and Spleen) after 12 weeks compared to the base time were measured. CT attenuation values (Hounsfield units) were measured in regions of interest (ROI) selected as a homogeneous place avoiding blood vessels in the right lobe of liver and spleen in one non-contrast-enhanced abdominal CT image including both liver and spleen three times, and the average value was taken as each CT attenuation number. Then, the size of each region of interest was designated equally as 120 mm^2. Through liver CT, for HU of liver, HU of spleen, HU difference of liver and spleen (Liver minus Spleen), and HU ratio of liver and spleen (Ratio Between Liver and Spleen) after 12 weeks, technical statistics (mean, standard deviation, median value, minimum value, maximum value) were proposed for the average change compared to the base time. The comparative statistic test for the three groups was performed using ANOVA or Kruscal-Wallis test by testing whether data were normally distributed. When there was a significant difference between the three groups, the multiple comparisons were conducted through Tukey-Kramer method. In order to find out whether there was a difference in the mean change in a group, it was analyzed using Paired t-test or Wilcoxon's signed rank test."}, "[2]": {"experiment": "Blood chemical test (Alkaline phosphatase, AST, ALT, γ-GTP), human application test", "format": "in vivo", "settings": "for ALT(SGPT), Mean / ALT(SGPT), Median / AST(SGOT), Mean / AST(SGOT), Median / Alkaline phosphatase, Mean / Alkaline phosphatase, Median / γ-GTP, Mean / γ-GTP, Median: ITT 33, time point not given; for ALT, change at 12 weeks compared to the base time / Alkaline phosphatase, change at 12 weeks compared to the base time / γ-GTP, change at 12 weeks compared to the base time: increased in control", "text": "After conducting a screening test for those who heard the detailed description of the purpose and research method of the present example and agreed in writing as subjects, those who met the selection/exclusion criteria were selected. The specific selection criteria are as follows, and the final selected subjects are 99 men and women who are overweight or obese, and the demographic information of the selected subjects is shown in the following Table 1. Ninety nine (99) subjects were randomly assigned to the high-dose group, low-dose group or control group, with including 33 subjects in each test group. In three test groups, the products were mixed in 100 ml of water and were administered orally twice a day. As the daily dose for one test subject, 12 g allulose in the high-dose group, 6 g allulose and 6 g anhydrous glucose in the low-dose group, and 12 g anhydrous glucose in the control group were divided and provided twice a day. It was administered from the day after the random assignment day (0 day), and was taken with drinking water twice at morning and evening with meals for 12 weeks. (4) Blood chemical test result The test items performed at screening visit (visit1), visit2 and end visit (visit5) were Alkaline phosphatase, AST, ALT, and γ-GTP. In case of continuous data, for the average change compared to the base time, technical statistics (mean, standard deviation, median value, minimum value, maximum value) were proposed for the average change compared to the base time. The comparative statistic test for the three groups was performed using ANOVA or Kruscal-Wallis test by testing whether data were normally distributed. When there was a significant difference between the three groups, the multiple comparison was conducted through Tukey-Kramer method. In order to find out whether there was a difference in the mean change in a group, it was analyzed using Paired t-test or Wilcoxon's signed rank test. In case of categorical data, technical statistics (frequency, percentage) were proposed, and comparative statistic test was performed between three groups using Chi-square test or Fisher' exact test."}, "[3]": {"design": "species or system human", "settings": "in vivo", "procedure": "Furthermore, the difference of the average change between the three groups at 12 weeks compared to the base time for the items was analyzed in the laboratory test."}, "[4]": {"settings": "high-dose group: allulose 12 g/d oral"}, "[5]": {"settings": "high-dose group: allulose 12 g/d oral, N 33"}, "[6]": {"settings": "low-dose group: allulose 6 g/d + anhydrous glucose 6 g/d oral"}, "[7]": {"settings": "low-dose group: allulose 6 g/d + anhydrous glucose 6 g/d oral, N 32"}, "[8]": {"settings": "high-dose group: allulose 12 g/d, statistically significant before/after"}, "[9]": {"settings": "low-dose group: allulose 6 g/d + glucose 6 g/d, statistically significant before/after"}}}
{"molecule": "O=C(CO)C(O)C(O)C(O)CO", "note": "(centres unmarked) [allulose]", "values": [{"measurement": "Liver HU Mean, 12 W, Mean", "setting": "[1]; [4]", "result": 57.49, "unit": "HU"}, {"measurement": "Liver - Spleen HU (Liver minus Spleen), 12 W, Mean", "setting": "[1]; [5]", "result": 7.19, "unit": "HU"}, {"measurement": "Spleen HU Mean, 12 W, Mean", "setting": "[1]; [5]", "result": 50.30, "unit": "HU"}, {"measurement": "Liver HU Mean, Difference (12 W vs base line)", "setting": "[1]; [4]", "result": "−0.78 ± 5.60", "unit": "HU"}, {"measurement": "Liver - Spleen HU, Difference (12 W vs base line)", "setting": "[1]; [5]", "result": "−1.28 ± 5.36", "unit": "HU"}, {"measurement": "Spleen HU Mean, Difference (12 W vs base line)", "setting": "[1]; [5]", "result": "0.50 ± 2.77", "unit": "HU"}, {"measurement": "Liver HU Mean, 12 W, Mean", "setting": "[1]; [6]", "result": 55.17, "unit": "HU"}, {"measurement": "Liver - Spleen HU (Liver minus Spleen), 12 W, Mean", "setting": "[1]; [7]", "result": 4.75, "unit": "HU"}, {"measurement": "Spleen HU Mean, 12 W, Mean", "setting": "[1]; [7]", "result": 50.66, "unit": "HU"}, {"measurement": "Liver HU Mean, Difference (12 W vs base line)", "setting": "[1]; [6]", "result": "−0.69 ± 5.17", "unit": "HU"}, {"measurement": "Liver - Spleen HU, Difference (12 W vs base line)", "setting": "[1]; [7]", "result": "−0.55 ± 5.43", "unit": "HU"}, {"measurement": "Spleen HU Mean, Difference (12 W vs base line)", "setting": "[1]; [7]", "result": "−0.41 ± 2.34", "unit": "HU"}, {"measurement": "ALT(SGPT), Mean", "setting": "[2]; [4]", "result": 22.21, "unit": "U/L"}, {"measurement": "ALT(SGPT), Median", "setting": "[2]; [4]", "result": 16.00, "unit": "U/L"}, {"measurement": "AST(SGOT), Mean", "setting": "[2]; [4]", "result": 18.76, "unit": "U/L"}, {"measurement": "AST(SGOT), Median", "setting": "[2]; [4]", "result": 18.00, "unit": "U/L"}, {"measurement": "Alkaline phosphatase, Mean", "setting": "[2]; [4]", "result": 183.21, "unit": "U/L"}, {"measurement": "Alkaline phosphatase, Median", "setting": "[2]; [4]", "result": 169.00, "unit": "U/L"}, {"measurement": "γ-GTP, Mean", "setting": "[2]; [4]", "result": 18.18, "unit": "U/L"}, {"measurement": "γ-GTP, Median", "setting": "[2]; [4]", "result": 14.00, "unit": "U/L"}, {"measurement": "ALT, change at 12 weeks compared to the base time", "setting": "[2]; [8]", "result": "reduced"}, {"measurement": "Alkaline phosphatase, change at 12 weeks compared to the base time", "setting": "[2]; [8]", "result": "reduced"}, {"measurement": "γ-GTP, change at 12 weeks compared to the base time", "setting": "[2]; [8]", "result": "reduced"}, {"measurement": "ALT(SGPT), Mean", "setting": "[2]; [6]", "result": 26.88, "unit": "U/L"}, {"measurement": "ALT(SGPT), Median", "setting": "[2]; [6]", "result": 19.00, "unit": "U/L"}, {"measurement": "AST(SGOT), Mean", "setting": "[2]; [6]", "result": 22.64, "unit": "U/L"}, {"measurement": "AST(SGOT), Median", "setting": "[2]; [6]", "result": 18.00, "unit": "U/L"}, {"measurement": "Alkaline phosphatase, Mean", "setting": "[2]; [6]", "result": 178.97, "unit": "U/L"}, {"measurement": "Alkaline phosphatase, Median", "setting": "[2]; [6]", "result": 170.00, "unit": "U/L"}, {"measurement": "γ-GTP, Mean", "setting": "[2]; [6]", "result": 33.58, "unit": "U/L"}, {"measurement": "γ-GTP, Median", "setting": "[2]; [6]", "result": 19.00, "unit": "U/L"}, {"measurement": "ALT, change at 12 weeks compared to the base time", "setting": "[2]; low-dose group: allulose 6 g/d + glucose 6 g/d", "result": "reduced"}, {"measurement": "Alkaline phosphatase, change at 12 weeks compared to the base time", "setting": "[2]; [9]", "result": "reduced"}, {"measurement": "γ-GTP, change at 12 weeks compared to the base time", "setting": "[2]; [9]", "result": "reduced"}, {"measurement": "normality of the urine test", "setting": "[3]", "result": "no clinically significant abnormal subject"}]}
